{"source": "patent US11491134B2", "about": "“Composition for inhibiting skin cell proliferation and/or anti-inflammation method for inhibiting skin cell proliferation and/or anti-inflammation and method for treating skin diseases and/or inflammatory diseases” (Industrial Technology Research Institute, priority 2019, dated 2022)", "test_system": "macrophages, RAW264.7 cells", "test": "Inhibition rate on inflammation (anti-inflammatory activity): nitric oxide, Griess reagent, LPS-treated macrophages", "assay_type": "cell-based", "conditions": "Mus musculus; for inhibition at 1.5625 µM: apigenin 1.5625 μM/0.42 μg/mL; for inhibition at 3.125 µM: apigenin 3.125 μM/0.84 μg/mL; for inhibition at 6.25 µM: apigenin 6.25 μM/1.69 μg/mL; for inhibition at 12.5 µM: apigenin 12.5 μM/3.38 μg/mL; for inhibition at 25 µM: apigenin 25 μM/6.76 μg/mL; for inhibition at 50 µM: apigenin 50 μM/13.51 μg/mL; for inhibition at 0.625 µM: apigenin 0.625 μM/0.17 μg/mL; for inhibition at 1.25 µM: apigenin 1.25 μM/0.34 μg/mL; for inhibition at 2.5 µM: apigenin 2.5 μM/0.68 μg/mL; for inhibition at 5 µM: apigenin 5 μM/1.35 μg/mL; for inhibition at 10 µM: apigenin 10 μM/2.70 μg/mL; for inhibition at 0.3125 µM: apigenin 0.3125 μM/0.08 μg/mL", "experimental": "Dimethyl sulfoxide (DMSO) was used as a solvent to prepare apigenin test samples with different concentrations and luteolin test samples with different concentrations. 9 batches of experiments were performed, which respectively were Batch 1 to Batch 9. There were 6 independent experiments in each batch of experiments. In each independent experiment, inhibition rate of an apigenin test sample with a specific concentration on inflammation and inhibition rate of a luteolin test sample with a specific concentration on inflammation were determined, and inhibition rate of a combination of an apigenin test sample with the said specific concentration and a luteolin test sample with the said specific concentration on inflammation was determined. Between the independent experiments, concentrations of apigenin test samples used were different, and concentrations of luteolin test samples used were also different, however, mole ratios or weight ratios of apigenin test samples to luteolin test samples were the same. Moreover, between the batches of experiments, mole ratios or weight ratios of apigenin test samples to luteolin test samples were different. 5×10^4 macrophages, RAW264.7 cells, were inoculated in a 96-well culture plate and then placed in a 37° C. and 5% CO2 incubator for culturing overnight. After overnight culture, the supernatant was removed, and lipopolysaccharide (LPS) (50 ng/mL) and a test sample was added to the cells (refer to Table 2, and the cells of the induced group were treated with lipopolysaccharide and dimethyl sulfoxide while the cells of the control group were only treated with dimethyl sulfoxide) for reaction for 24 hours. Thereafter, the supernatant of each well in the culture plate was transferred to a new culture plate and reacted with Griess reagent (Promega, Cat. No. G2930), respectively, and then the absorbance of each well of the culture plate was determined at 540 nm by a continuous wavelength microplate reader to evaluate the content of nitric oxide (NO), and anti-inflammatory activity was calculated through the following formula: Anti-inflammation=(Induced group540 nm−Experimental group540 nm)/(Induced group540 nm−Control group540 nm) In this experiment, the synergistic effects of apigenin and luteolin were evaluated by CalcuSyn software (BIOSOFT). CalcuSyn software is an analysis software which is commonly used to analyze the drug dosage effect of single drug and multiple drugs at present. CalcuSyn software can be used to analyze drug complex interactions and automatically quantify various phenomena such as synergism and inhibition. CalcuSyn software can process the data of individual drugs and combination drugs with constant-ratio or on-constant-ratio, and can evaluate the interaction of combination drugs by the combination index (CI) (Chou and Talalay, Adv. Enzyme Regul. 22:27-55 (1984) calculated by CalcuSyn software. Calculation formula for the combination index is shown in the following: Combination index=C1/IC1+C2/IC2 C1 and C2 are the respective concentrations of the first compound and the second compound at which the activity of achieving a specific physiological or medical purpose is 50% (or 75%, or 90%) when the first compound and the second compound are analyzed in combination; IC1 and IC2 are the respective concentrations at which the activity of achieving a specific physiological or medical purpose of the first compound and the second compound is 50% (or 75%, or 90%) when the first compound and the second compound are independently analyzed. […]"}
{"smiles": "O=c1cc(-c2ccc(O)cc2)oc2cc(O)cc(O)c12", "note": "[Apigenin, apigenin]", "values": [{"measurement": "inhibition at 1.5625 µM", "setting": "RAW264.7, Batch 1", "value": 1.1, "unit": "%"}, {"measurement": "inhibition at 3.125 µM", "setting": "RAW264.7, Batch 1", "value": 7, "unit": "%"}, {"measurement": "inhibition at 6.25 µM", "setting": "RAW264.7, Batch 1", "value": 26.3, "unit": "%"}, {"measurement": "inhibition at 12.5 µM", "setting": "RAW264.7, Batch 1", "value": 48.1, "unit": "%"}, {"measurement": "inhibition at 25 µM", "setting": "RAW264.7, Batch 1", "value": 78.7, "unit": "%"}, {"measurement": "inhibition at 50 µM", "setting": "RAW264.7, Batch 1", "value": 99.9, "unit": "%"}, {"measurement": "inhibition at 1.5625 µM", "setting": "RAW264.7, Batch 2", "value": 2, "unit": "%"}, {"measurement": "inhibition at 3.125 µM", "setting": "RAW264.7, Batch 2", "value": 16.6, "unit": "%"}, {"measurement": "inhibition at 6.25 µM", "setting": "RAW264.7, Batch 2", "value": 23.7, "unit": "%"}, {"measurement": "inhibition at 12.5 µM", "setting": "RAW264.7, Batch 2", "value": 32.9, "unit": "%"}, {"measurement": "inhibition at 25 µM", "setting": "RAW264.7, Batch 2", "value": 74.1, "unit": "%"}, {"measurement": "inhibition at 50 µM", "setting": "RAW264.7, Batch 2", "value": 99.9, "unit": "%"}, {"measurement": "inhibition at 1.5625 µM", "setting": "RAW264.7, Batch 3", "value": 0.1, "unit": "%"}, {"measurement": "inhibition at 3.125 µM", "setting": "RAW264.7, Batch 3", "value": 0.9, "unit": "%"}, {"measurement": "inhibition at 6.25 µM", "setting": "RAW264.7, Batch 3", "value": 20.2, "unit": "%"}, {"measurement": "inhibition at 12.5 µM", "setting": "RAW264.7, Batch 3", "value": 57.9, "unit": "%"}, {"measurement": "inhibition at 25 µM", "setting": "RAW264.7, Batch 3", "value": 93.8, "unit": "%"}, {"measurement": "inhibition at 50 µM", "setting": "RAW264.7, Batch 3", "value": 99.5, "unit": "%"}, {"measurement": "inhibition at 1.5625 µM", "setting": "RAW264.7, Batch 4", "value": 0.1, "unit": "%"}, {"measurement": "inhibition at 3.125 µM", "setting": "RAW264.7, Batch 4", "value": 0.1, "unit": "%"}, {"measurement": "inhibition at 6.25 µM", "setting": "RAW264.7, Batch 4", "value": 12, "unit": "%"}, {"measurement": "inhibition at 12.5 µM", "setting": "RAW264.7, Batch 4", "value": 45.4, "unit": "%"}, {"measurement": "inhibition at 25 µM", "setting": "RAW264.7, Batch 4", "value": 93.4, "unit": "%"}, {"measurement": "inhibition at 50 µM", "setting": "RAW264.7, Batch 4", "value": 99.9, "unit": "%"}, {"measurement": "inhibition at 1.5625 µM", "setting": "RAW264.7, Batch 5", "value": 3.4, "unit": "%"}, {"measurement": "inhibition at 3.125 µM", "setting": "RAW264.7, Batch 5", "value": 11.2, "unit": "%"}, {"measurement": "inhibition at 6.25 µM", "setting": "RAW264.7, Batch 5", "value": 27.9, "unit": "%"}, {"measurement": "inhibition at 12.5 µM", "setting": "RAW264.7, Batch 5", "value": 59.5, "unit": "%"}, {"measurement": "inhibition at 25 µM", "setting": "RAW264.7, Batch 5", "value": 92.7, "unit": "%"}, {"measurement": "inhibition at 50 µM", "setting": "RAW264.7, Batch 5", "value": 97.6, "unit": "%"}, {"measurement": "inhibition at 1.5625 µM", "setting": "RAW264.7, Batch 6", "value": 18.9, "unit": "%"}, {"measurement": "inhibition at 3.125 µM", "setting": "RAW264.7, Batch 6", "value": 7.4, "unit": "%"}, {"measurement": "inhibition at 6.25 µM", "setting": "RAW264.7, Batch 6", "value": 28.9, "unit": "%"}, {"measurement": "inhibition at 12.5 µM", "setting": "RAW264.7, Batch 6", "value": 59.4, "unit": "%"}, {"measurement": "inhibition at 25 µM", "setting": "RAW264.7, Batch 6", "value": 97.2, "unit": "%"}, {"measurement": "inhibition at 50 µM", "setting": "RAW264.7, Batch 6", "value": 99.9, "unit": "%"}, {"measurement": "inhibition at 0.625 µM", "setting": "RAW264.7, Batch 7", "value": 0.1, "unit": "%"}, {"measurement": "inhibition at 1.25 µM", "setting": "RAW264.7, Batch 7", "value": 0.1, "unit": "%"}, {"measurement": "inhibition at 2.5 µM", "setting": "RAW264.7, Batch 7", "value": 3.2, "unit": "%"}, {"measurement": "inhibition at 5 µM", "setting": "RAW264.7, Batch 7", "value": 30, "unit": "%"}, {"measurement": "inhibition at 10 µM", "setting": "RAW264.7, Batch 7", "value": 65.3, "unit": "%"}, {"measurement": "inhibition at 20 µM", "setting": "RAW264.7, Batch 7, apigenin 20 μM/5.40 μg/mL", "value": 96, "unit": "%"}, {"measurement": "inhibition at 0.3125 µM", "setting": "RAW264.7, Batch 8", "value": 0.1, "unit": "%"}, {"measurement": "inhibition at 0.625 µM", "setting": "RAW264.7, Batch 8", "value": 0.1, "unit": "%"}, {"measurement": "inhibition at 1.25 µM", "setting": "RAW264.7, Batch 8", "value": 0.1, "unit": "%"}, {"measurement": "inhibition at 2.5 µM", "setting": "RAW264.7, Batch 8", "value": 0.6, "unit": "%"}, {"measurement": "inhibition at 5 µM", "setting": "RAW264.7, Batch 8", "value": 20.6, "unit": "%"}, {"measurement": "inhibition at 10 µM", "setting": "RAW264.7, Batch 8", "value": 51, "unit": "%"}, {"measurement": "inhibition at 0.078 µM", "setting": "RAW264.7, Batch 9, apigenin 0.078 μM/0.02 μg/mL", "value": 2, "unit": "%"}, {"measurement": "inhibition at 0.156 µM", "setting": "RAW264.7, Batch 9, apigenin 0.156 μM/0.04 μg/mL", "value": 0.2, "unit": "%"}, {"measurement": "inhibition at 0.3125 µM", "setting": "RAW264.7, Batch 9", "value": 10.4, "unit": "%"}, {"measurement": "inhibition at 0.625 µM", "setting": "RAW264.7, Batch 9", "value": 6.5, "unit": "%"}, {"measurement": "inhibition at 1.25 µM", "setting": "RAW264.7, Batch 9", "value": 6.5, "unit": "%"}, {"measurement": "inhibition at 2.5 µM", "setting": "RAW264.7, Batch 9", "value": 14.9, "unit": "%"}]}
